How the values were obtained:
Adenylate cyclase type 1 [1] = biological target: T1, Adenylate cyclase type 1 (Homo sapiens, UniProt Q08828); assay: Conversion of [32P] ATP to [32P]-cyclic AMP mediated by adenylate cyclase 1; assay type: functional
Target sequence in this assay (Q08828 whole entry): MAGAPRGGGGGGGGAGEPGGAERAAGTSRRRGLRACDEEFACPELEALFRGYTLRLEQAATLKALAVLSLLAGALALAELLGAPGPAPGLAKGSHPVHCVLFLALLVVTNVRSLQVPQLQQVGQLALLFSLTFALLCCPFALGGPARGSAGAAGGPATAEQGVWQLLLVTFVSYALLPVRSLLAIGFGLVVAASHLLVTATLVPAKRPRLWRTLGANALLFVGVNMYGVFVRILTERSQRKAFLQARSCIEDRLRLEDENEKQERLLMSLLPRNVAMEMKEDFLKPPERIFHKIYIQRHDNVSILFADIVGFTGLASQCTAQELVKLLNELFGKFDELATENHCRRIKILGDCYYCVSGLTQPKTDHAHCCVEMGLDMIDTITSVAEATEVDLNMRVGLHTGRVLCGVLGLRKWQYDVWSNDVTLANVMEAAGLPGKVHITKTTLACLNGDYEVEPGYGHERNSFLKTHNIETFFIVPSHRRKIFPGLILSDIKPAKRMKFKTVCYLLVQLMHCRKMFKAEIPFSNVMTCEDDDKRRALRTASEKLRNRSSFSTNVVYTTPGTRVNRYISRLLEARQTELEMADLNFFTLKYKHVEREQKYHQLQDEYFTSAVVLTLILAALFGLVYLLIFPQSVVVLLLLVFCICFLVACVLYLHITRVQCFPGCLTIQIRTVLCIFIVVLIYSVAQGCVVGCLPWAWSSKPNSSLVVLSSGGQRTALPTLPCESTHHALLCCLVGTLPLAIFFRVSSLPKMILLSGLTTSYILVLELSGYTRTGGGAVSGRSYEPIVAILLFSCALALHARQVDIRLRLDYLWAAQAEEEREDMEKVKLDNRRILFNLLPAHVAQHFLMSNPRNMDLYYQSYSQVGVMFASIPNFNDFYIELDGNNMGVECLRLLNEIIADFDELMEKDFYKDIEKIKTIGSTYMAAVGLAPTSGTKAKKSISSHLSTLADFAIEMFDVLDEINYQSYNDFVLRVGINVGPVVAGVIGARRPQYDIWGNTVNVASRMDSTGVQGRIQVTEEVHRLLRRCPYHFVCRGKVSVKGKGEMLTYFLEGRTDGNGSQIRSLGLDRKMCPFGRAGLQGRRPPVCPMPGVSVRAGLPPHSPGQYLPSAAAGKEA

Adenylate cyclase type 1 [2] = biological target: T1, Adenylate cyclase type 1; assay: (§1) Inhibition of [125 I]6-IHPP-forskolin binding to adenylate cyclase 1
Target sequence in this assay (Q08828 whole entry): as above

Adenylate cyclase type 1 [3] = biological target: T1, Adenylate cyclase type 1; assay: Maximum stimulation activity measured with 100 uM forskolin mediated by adenylate cyclase 1; assay type: functional
Target sequence in this assay (Q08828 whole entry, looked up): as the sequence (Q08828 whole entry) above

Adenylate cyclase type 1 [4] = biological target: T1, Adenylate cyclase type 1; assay: as §1; remark: listed apart in the source
Target sequence in this assay (Q08828 whole entry): as above

Adenylate cyclase type 1 [5] = biological target: T1, Adenylate cyclase type 1; assay: Ability to activate the conversion of [32P] ATP to [32P]-cyclic AMP mediated by adenylate cyclase 1; assay type: functional
Target sequence in this assay (Q08828 whole entry): as above

Row | Compound | EC50 (Adenylate cyclase type 1 [1]; read-out: EC50) | IC50 (Adenylate cyclase type 1 [2]) | Activity (Adenylate cyclase type 1 [3]) | IC50 (Adenylate cyclase type 1 [4]) | EC50 (Adenylate cyclase type 1 [5]) | EC50 (Adenylate cyclase type 1 [1])
1 | C=C[C@@]1(C)CC(=O)[C@]2(O)[C@@]3(C)[C@@H](O)CCC(C)(C)[C@@H]3[C@H](OC(=O)NCCc3ccc(O)cc3)[C@H](O)[C@@]2(C)O1 | 630 nM | > 150 nM | 86% | 236 nM | < 2000 nM | 
2 | C=C[C@@]1(C)CC(=O)[C@]2(O)[C@@]3(C)[C@@H](O)CCC(C)(C)[C@@H]3[C@H](OC(=O)NCC(C)C)[C@H](O)[C@@]2(C)O1 | 2500 nM | > 150 nM | 88% | 593 nM | > 2000 nM | 
3 | C=C[C@@]1(C)CC(=O)[C@]2(O)[C@@]3(C)[C@@H](O)CCC(C)(C)[C@@H]3[C@H](OC(=O)NCCC(C)(C)C)[C@H](O)[C@@]2(C)O1 | 2100 nM | > 150 nM | 63% | 680 nM | > 2000 nM | 
4 | C=CCNC(=O)O[C@H]1[C@@H](O)[C@H]2C(C)(C)CC[C@H](O)[C@]2(C)[C@@]2(O)C(=O)C[C@](C)(C=C)O[C@]12C | 2400 nM | > 150 nM | 102% | 157 nM | > 2000 nM | 
5 | C=C[C@@]1(C)CC(=O)[C@]2(O)[C@@]3(C)[C@@H](O)CCC(C)(C)[C@@H]3[C@H](O)[C@H](OC(=O)NCCc3ccccc3)[C@@]2(C)O1 | 2100 nM | > 150 nM | 75% | 251 nM | > 2000 nM | 
6 | C=C[C@@]1(C)CC(=O)[C@]2(O)[C@@]3(C)[C@@H](O)CCC(C)(C)[C@@H]3[C@H](O)[C@H](OC(=O)NCCC(=O)OCC)[C@@]2(C)O1 | 3600 nM | > 150 nM | 127% | 185 nM | > 2000 nM | 
7 | C=C[C@@]1(C)CC(=O)[C@]2(O)[C@@]3(C)[C@@H](O)CCC(C)(C)[C@@H]3[C@H](OC(=O)NCCC(C)(C)C)[C@H](OC(C)=O)[C@@]2(C)O1 | 8100 nM | > 150 nM | 84% | 271 nM | > 2000 nM | 
8 | C=C[C@@]1(C)CC(=O)[C@]2(O)[C@@]3(C)[C@@H](O)CCC(C)(C)[C@@H]3[C@H](OC(=O)NCCO)[C@H](O)[C@@]2(C)O1 | 3600 nM | > 150 nM | 85% | 230 nM | > 2000 nM | 
9 | C=C[C@@]1(C)CC(=O)[C@]2(O)[C@@]3(C)[C@@H](O)CCC(C)(C)[C@@H]3[C@H](O)[C@H](OC(=O)NCCOC)[C@@]2(C)O1 | 1600 nM | > 150 nM | 97% | 174 nM | > 2000 nM | 
10 | C=C[C@@]1(C)CC(=O)[C@]2(O)[C@@]3(C)[C@@H](O)CCC(C)(C)[C@@H]3[C@H](OC(=O)NCCN(C)C)[C@H](O)[C@@]2(C)O1 | 4900 nM | > 150 nM | 131% | 247 nM | > 2000 nM | 
11 | C=C[C@@]1(C)CC(=O)[C@]2(O)[C@@]3(C)[C@@H](O)CCC(C)(C)[C@@H]3[C@H](OC(=O)NCCN)[C@H](O)[C@@]2(C)O1 |  |  |  | 192 nM |  | Indeterminate
12 | C=C[C@@]1(C)CC(=O)[C@]2(O)[C@@]3(C)[C@@H](O)CCC(C)(C)[C@@H]3[C@H](OC(=O)NCCO)[C@H](OC(C)=O)[C@@]2(C)O1 | 500 nM | < 150 nM | 57% | 142 nM | < 2000 nM | 
13 | C=C[C@@]1(C)CC(=O)[C@]2(O)[C@@]3(C)[C@@H](O)CCC(C)(C)[C@@H]3[C@H](OC(=O)NCC3CCCCC3)[C@H](O)[C@@]2(C)O1 | 1000 nM | > 150 nM | 51% | 433 nM | < 2000 nM | 
14 | C=C[C@@]1(C)CC(=O)[C@]2(O)[C@@]3(C)[C@@H](O)CCC(C)(C)[C@@H]3[C@H](OC(=O)NCCC(=O)OCC)[C@H](O)[C@@]2(C)O1 | 6500 nM | > 150 nM | 75% | 171 nM | > 2000 nM | 
15 | C=C[C@@]1(C)CC(=O)[C@]2(O)[C@@]3(C)[C@@H](O)CCC(C)(C)[C@@H]3[C@H](O)[C@H](OC(=O)NCC3CCCCC3)[C@@]2(C)O1 | 6400 nM | > 150 nM | 44% | 1600 nM | > 2000 nM | 
16 | C=CCNC(=O)O[C@H]1[C@H]2C(C)(C)CC[C@H](O)[C@]2(C)[C@@]2(O)C(=O)C[C@](C)(C=C)O[C@]2(C)[C@H]1O | 3500 nM | > 150 nM | 94% | 306 nM | > 2000 nM | 
17 | C=C[C@@]1(C)CC(=O)[C@]2(O)[C@@]3(C)[C@@H](O)CCC(C)(C)[C@@H]3[C@H](O)[C@H](OC(=O)NCCC(C)(C)C)[C@@]2(C)O1 | 9600 nM | > 150 nM | 58% | 608 nM | > 2000 nM | 
18 | C=C[C@@]1(C)CC(=O)[C@]2(O)[C@@]3(C)[C@@H](O)CCC(C)(C)[C@@H]3[C@H](OC(=O)NCCc3ccc(N)cc3)[C@H](O)[C@@]2(C)O1 | 5100 nM | > 150 nM | 83% | 162 nM | > 2000 nM | 
19 | C=C[C@@]1(C)CC(=O)[C@]2(O)[C@@]3(C)[C@@H](O)CCC(C)(C)[C@@H]3[C@H](OC(=O)NCC(C)C)[C@H](OC(C)=O)[C@@]2(C)O1 | 4100 nM | > 150 nM | 93% | 167 nM | > 2000 nM | 
20 | C=C[C@@]1(C)CC(=O)[C@]2(O)[C@@]3(C)[C@@H](O)CCC(C)(C)[C@@H]3[C@H](O)[C@H](OC(=O)NCCc3ccccn3)[C@@]2(C)O1 | 1100 nM | < 150 nM | 91% | 143 nM | < 2000 nM | 
21 | C=C[C@@]1(C)CC(=O)[C@]2(O)[C@@]3(C)[C@@H](O)CCC(C)(C)[C@@H]3[C@H](O)[C@H](OC(=O)NCCN)[C@@]2(C)O1 | 700 nM | < 150 nM | 85% | 128 nM | < 2000 nM | 

Compounds with a lower IC50 (Adenylate cyclase type 1 [4]), results first:

Row | EC50 (Adenylate cyclase type 1 [1]; read-out: EC50) | IC50 (Adenylate cyclase type 1 [2]) | Activity (Adenylate cyclase type 1 [3]) | IC50 (Adenylate cyclase type 1 [4]) | EC50 (Adenylate cyclase type 1 [5]) | EC50 (Adenylate cyclase type 1 [1]) | Compound
22 | 1700 nM | < 150 nM | 80% | 123 nM | < 2000 nM |  | C=C[C@@]1(C)CC(=O)[C@]2(O)[C@@]3(C)[C@@H](O)CCC(C)(C)[C@@H]3[C@H](OC(=O)NCCN3CCCCC3)[C@H](O)[C@@]2(C)O1
23 | 6600 nM | > 150 nM | 74% | 117 nM | > 2000 nM |  | C=C[C@@]1(C)CC(=O)[C@]2(O)[C@@]3(C)[C@@H](O)CCC(C)(C)[C@@H]3[C@H](OC(=O)NCC3CCCCC3)[C@H](OC(C)=O)[C@@]2(C)O1
24 | 1800 nM | < 150 nM | 59% | 117 nM | < 2000 nM |  | C=C[C@@]1(C)CC(=O)[C@]2(O)[C@@]3(C)[C@@H](O)CCC(C)(C)[C@@H]3[C@H](OC(=O)NCCc3ccccn3)[C@H](O)[C@@]2(C)O1
25 | 2700 nM | < 150 nM | 72% | 112 nM | > 2000 nM |  | C=C[C@@]1(C)CC(=O)[C@]2(O)[C@@]3(C)[C@@H](O)CCC(C)(C)[C@@H]3[C@H](O)[C@H](OC(=O)NCC(C)C)[C@@]2(C)O1
26 | 1300 nM | < 150 nM | 101% | 89 nM | < 2000 nM |  | C=C[C@@]1(C)CC(=O)[C@]2(O)[C@@]3(C)[C@@H](O)CCC(C)(C)[C@@H]3[C@H](O)[C@H](OC(=O)NCCC)[C@@]2(C)O1
27 | 500 nM | < 150 nM | 100% | 82 nM | < 2000 nM |  | C=C[C@@]1(C)CC(=O)[C@]2(O)[C@@]3(C)[C@@H](O)CCC(C)(C)[C@@H]3[C@H](OC(=O)NCCN3CCCCC3)[C@H](OC(C)=O)[C@@]2(C)O1
28 | 4300 nM | < 150 nM | 80% | 76 nM | > 2000 nM |  | C=C[C@@]1(C)CC(=O)[C@]2(O)[C@@]3(C)[C@@H](O)CCC(C)(C)[C@@H]3[C@H](OC(=O)NCCC)[C@H](OC(C)=O)[C@@]2(C)O1
29 | 4400 nM | < 150 nM | 80% | 76 nM | > 2000 nM |  | C=CCNC(=O)O[C@H]1[C@H]2C(C)(C)CC[C@H](O)[C@]2(C)[C@@]2(O)C(=O)C[C@](C)(C=C)O[C@]2(C)[C@H]1OC(C)=O
30 | 2000 nM | < 150 nM | 100% | 73 nM | < 2000 nM |  | C=C[C@@]1(C)CC(=O)[C@]2(O)[C@@]3(C)[C@@H](O)CCC(C)(C)[C@@H]3[C@H](OC(=O)NCCN(C)C)[C@H](OC(C)=O)[C@@]2(C)O1
31 | 1100 nM | < 150 nM | 72% | 65 nM | < 2000 nM |  | C=C[C@@]1(C)CC(=O)[C@]2(O)[C@@]3(C)[C@@H](O)CCC(C)(C)[C@@H]3[C@H](OC(=O)NCCc3ccccc3)[C@H](O)[C@@]2(C)O1
32 | 3500 nM | < 150 nM | 157% | 44 nM | > 2000 nM |  | C=C[C@@]1(C)CC(=O)[C@]2(O)[C@@]3(C)[C@@H](O)CCC(C)(C)[C@@H]3[C@H](OC(=O)NCCC(=O)OCC)[C@H](OC(C)=O)[C@@]2(C)O1
33 | 500 nM | < 150 nM | 55% | 39 nM | < 2000 nM |  | C=C[C@@]1(C)CC(=O)[C@]2(O)[C@@]3(C)[C@@H](O)CCC(C)(C)[C@@H]3[C@H](OC(=O)NCCc3ccc(N)cc3)[C@H](OC(C)=O)[C@@]2(C)O1
34 | 1500 nM | < 150 nM | 65% | 36 nM | < 2000 nM |  | C=C[C@@]1(C)CC(=O)[C@]2(O)[C@@]3(C)[C@@H](O)CCC(C)(C)[C@@H]3[C@H](OC(=O)NCCc3ccccc3)[C@H](OC(C)=O)[C@@]2(C)O1
35 | 700 nM | < 150 nM | 71% | 32 nM | < 2000 nM |  | C=C[C@@]1(C)CC(=O)[C@]2(O)[C@@]3(C)[C@@H](O)CCC(C)(C)[C@@H]3[C@H](OC(=O)NCCOC)[C@H](OC(C)=O)[C@@]2(C)O1
36 | 600 nM | < 150 nM | 125% | 31 nM | < 2000 nM |  | C=C[C@@]1(C)CC(=O)[C@]2(O)[C@@]3(C)[C@@H](O)CCC(C)(C)[C@@H]3[C@H](OC(=O)NCCN)[C@H](OC(C)=O)[C@@]2(C)O1

Source: ChEMBL document CHEMBL1129369, “Forskolin carbamates: binding and activation studies with type I adenylyl cyclase” (J Med Chem, 1996)
